Reference: paper PMC11013139, “Identification of Corn Peptides with Alcohol Dehydrogenase Activating Activity Absorbed by Caco-2 Cell Monolayers” (Molecules, 2024)
Where no end group is shown, it is not given here.

Columns and labels:
[1] = tested on: ADH enzyme; conditions: cited from earlier work
Description: The results of molecular docking were visualized by selecting three peptides with the lowest binding energy, as depicted in Figure 5. Three peptides successfully docked onto the hydrophobic cavity near the ADH active site, primarily binding to ADH through hydrogen bonds and hydrophobic interactions. Twelve hydrogen bonds were formed between SSNCQPF and ADH residues (His 44, Gly 181, Leu 182, Gly 183, Val 245, Ser 246, Val 247, Met 270, Glu 333, Gly 339, Arg 340). Ten hydrogen bonds were formed between QPQQP ...

[2] = biological target: T1, ADH (Saccharomyces cerevisiae, UniProt P00330); assay: ADH activation activity in vitro (improved assay kit method); assay type: biochemical; conditions: synthetic peptides; ADH 0.2 U/mL, NAD+ and ethanol, 37 °C, absorbance 340 nm every 10 s for 10 min; mean ± SD of three parallel experiments
T1 sequence (P00330 1-348): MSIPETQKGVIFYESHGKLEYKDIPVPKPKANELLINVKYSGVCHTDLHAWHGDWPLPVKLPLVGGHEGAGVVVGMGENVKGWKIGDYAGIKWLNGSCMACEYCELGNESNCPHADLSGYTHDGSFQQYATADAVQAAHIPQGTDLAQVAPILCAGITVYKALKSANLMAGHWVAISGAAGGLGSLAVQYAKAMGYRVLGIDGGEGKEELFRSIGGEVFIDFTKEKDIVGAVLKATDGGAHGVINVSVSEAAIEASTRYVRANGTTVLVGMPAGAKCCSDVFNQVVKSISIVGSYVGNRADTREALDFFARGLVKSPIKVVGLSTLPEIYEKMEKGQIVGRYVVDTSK
Procedure: The ADH activation activity in vitro was detected using an improved assay kit method. The specific steps are as follows: 50 μL of the sample solution was mixed with 150 μL of the assay reagent (including buffer, NAD^+, and ethanol); after equilibrating at 37 °C for 5 min, 50 μL of ADH (0.2 U/mL) was added to initiate the reaction. The absorbance at 340 nm was measured using a Varioskan Flash (Thermo Fisher Scientific, Waltham, MA, USA) full-wavelength scanning multimode reader, with readings taken every 10 s for 10 min. Distilled water was used as a negative control in place of the sample. The reaction kinetics curve was fitted, and the first derivative of the curve at 0 min was calculated as the initial reaction rate. The initial reaction rate of the sample was recorded as Vs, while that of the negative control was recorded as V0. The ADH activation rate of the sample can be calculated using the following equation:(1) ADH activation activity %=VS−V0/V0×100

Row | Substance | binding energy between peptide KPC and ADH enzyme [1] [kcal/mol] | EC50 [2] [mM]
1 | Lys-Pro-Cys [KPC, Chicken-derived tripeptide KPC (Lys-Pro-Cys)] | -6.6 | –
2 | QPQQPW [QPQQPW] | – | 2.73 ± 0.13
3 | SSNCQPF [SSNCQPF] | – | 1.35 ± 0.22
4 | TGCPVLQ [TGCPVLQ] | – | 2.26 ± 0.16
